Assays:
Assay type in all cases: cell-based, rat (male Wistar)
[1] = system: free adipocytes from abdominal subcutaneous adipose tissue; assay: Test Example 3: lipolysis-stimulating activity (free glycerol) in free adipocytes with norepinephrine; Huang Hua Cai extract and aminophylline; conditions: Rattus norvegicus, Adipocyte, aminophylline singly, 90 nM norepinephrine, control = 100%
Experimental: (§1) Specifically, free adipocytes were recovered from the abdominal subcutaneous adipose tissue of each of one to three male Wistar rats (each having a body weight of 170 to 230 g) by use of a collagenase solution.
(§2) The free adipocytes were incubated at 37° C. for 2 hours in a Hanks buffer solution containing bovine serum albumin and 90 nM norepinephrine (reaction mixture) to which each test substance had been added. The resultant free glycerol was assayed through an enzymatic method (Free Glycerol Reagent, product of Sigma-Aldrich).
(§3) As a control, adipocytes were incubated in the same buffer containing only norepinephrine but no test substance.
(§4) Lipolysis-stimulating activity was calculated by the following equation, with 100% being a control value. Lipolysis-stimulating activity(%)=100×(free glycerol in each group)/(free glycerol in control group)
The procedure of Test Example 1 was repeated, except that caffeine was changed to aminophylline. The following substances were tested: and two different mixtures of Huang Hua Cai extract and aminophylline (hereinafter referred to as “Huang Hua Cai-aminophylline mixture”), i.e., Huang Hua Cai-aminophylline mixture 1 (Huang Hua Cai extract+1 μg/mL aminophylline), and a Huang Hua Cai-aminophylline mixture 2 (Huang Hua Cai extract+3 μg/mL aminophylline).
Aminophylline employed in the test was a commercial product (Sigma-Aldrich). […]

[2] = system: free adipocytes from abdominal subcutaneous adipose tissue; assay: Test Example 1: lipolysis-stimulating activity (free glycerol) in free adipocytes with norepinephrine; Huang Hua Cai extract and caffeine; conditions: Rattus norvegicus, Adipocyte, caffeine singly, 90 nM norepinephrine, 37° C., 2 hours, control = 100%
Experimental: The Rodbell's method (Rodbell, M., J. Biol. Chem., 239, 375 (1964)) was employed. Specifically, free adipocytes were recovered from the abdominal subcutaneous adipose tissue of each of one to three male Wistar rats (each having a body weight of 170 to 230 g) by use of a collagenase solution.
The following substances were tested: the Huang Hua Cai extract (singly), caffeine (singly), and two different mixtures of Huang Hua Cai extract and caffeine (hereinafter referred to as “Huang Hua Cai-caffeine mixture”), i.e., Huang Hua Cai-caffeine mixture 1 (Huang Hua Cai extract+10 μg/mL caffeine), and Huang Hua Cai-caffeine mixture 2 (Huang Hua Cai extract+30 μg/mL caffeine).
as §2
To the reaction mixture, added the Huang Hua Cai extract at the final concentration of 0, 3, 10, 30 and 100 μg/mL, respectively, and caffeine at the final concentration of 0, 10 and 30 μg/mL, respectively. […]
Lipolysis-stimulating activity was calculated by the following equation, with 100% being a control value. […]

[3] = system: free adipocytes from abdominal subcutaneous adipose tissue; assay: Test Example 2: lipolysis-stimulating activity (free glycerol) in free adipocytes with norepinephrine; Huang Hua Cai extract and theophylline; conditions: Rattus norvegicus, Adipocyte, theophylline singly, 90 nM norepinephrine, control = 100%
Experimental: as §1, §2, §3, §4
The following substances were tested: the Huang Hua Cai extract (singly), theophylline (singly), and two different mixtures of Huang Hua Cai extract and theophylline (hereinafter referred to as “Huang Hua Cai-theophylline mixture”), i.e., Huang Hua Cai-theophylline mixture 1 (Huang Hua Cai extract+1 μg/mL theophylline), and a Huang Hua Cai-theophylline mixture 2 (Huang Hua Cai extract+3 μg/mL theophylline). […]

Compound: Cn1c(=O)c2[nH]cnc2n(C)c1=O [Aminophylline, aminophylline]
- activity at 1 µg/mL ([1]; 1 μg/mL): 140%
- activity at 3 µg/mL ([1]; 3 μg/mL): 197%

Compound: Cn1c(=O)c2c(ncn2C)n(C)c1=O [Caffeine, caffeine]
- activity at 10 µg/mL ([2]; 10 μg/mL): 157%
- activity at 30 µg/mL ([2]; 30 μg/mL): 207%

Compound: Cn1c(=O)c2[nH]cnc2n(C)c1=O [Theophylline, theophylline]
- activity at 1 µg/mL ([3]; 1 μg/mL): 142%
- activity at 3 µg/mL ([3]; 3 μg/mL): 188%

— US8197859B2, “Lipolysis stimulator” (Kao Corporation, priority 2006, dated 2012)
